From patent US8378104B2 (OSI Pharmaceuticals, LLC, priority 2010, dated 2013)
Counter-ions that a name gives are not always drawn.

Target: T1, TAK1-TAB1 fusion protein (Homo sapiens, UniProt O43318)
T1 construct: purchased Carna
T1 sequence (O43318 with tags, fused parts or gaps limits assumed): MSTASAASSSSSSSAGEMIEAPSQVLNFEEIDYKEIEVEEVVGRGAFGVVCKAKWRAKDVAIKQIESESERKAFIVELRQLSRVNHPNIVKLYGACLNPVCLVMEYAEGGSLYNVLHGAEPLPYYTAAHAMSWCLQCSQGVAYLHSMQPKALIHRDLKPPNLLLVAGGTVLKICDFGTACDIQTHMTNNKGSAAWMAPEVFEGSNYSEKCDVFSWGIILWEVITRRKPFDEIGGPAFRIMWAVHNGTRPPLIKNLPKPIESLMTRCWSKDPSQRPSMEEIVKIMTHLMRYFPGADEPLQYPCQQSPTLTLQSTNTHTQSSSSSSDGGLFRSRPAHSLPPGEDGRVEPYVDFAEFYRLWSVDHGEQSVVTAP
Experiment: TAK1 biochemical assay (AlphaScreen, GST-MAP2K7 substrate)
Conditions: TAK1-TAB1 fusion protein, GST-MAP2K7 substrate; read-out: mean TAK1 IC50 (Col. A)

## CC(=O)N1CCC(n2cc(-c3cnc(N)c4oc(-c5cccc(-c6ccccc6)c5)cc34)cn2)CC1 [Example 160, 1-(4-{4-[7-amino-2-(biphenyl-3-yl)furo[2,3-c]pyridin-4-yl]-1H-pyrazol-1-yl}piperidin-1-yl)ethanone]
  IC50: 1000 to 10000 nM

## Nc1ncc(-c2cnn(C3CC=CC3)c2)c2cc(-c3cccc4cnccc34)oc12 [Example 72, 4-[1-(cyclopent-3-en-1-yl)-1H-pyrazol-4-yl]-2-(isoquinolin-5-yl)furo[2,3-c]pyridin-7-amine]
  IC50: 100 to 1000 nM

## CC(=O)N1CCC(n2cc(-c3cnc(N)c4oc(-c5ccc([N+](=O)[O-])nc5)cc34)cn2)CC1 [Example 119, 1-(4-{4-[7-amino-2-(6-nitropyridin-3-yl)furo[2,3-c]pyridin-4-yl]-1H-pyrazol-1-yl}piperidin-1-yl)ethanone]
  IC50: 1000 to 10000 nM

## Nc1ncc(-c2cnn(C3CCNCC3)c2)c2cc(-c3cccc4nn[nH]c34)oc12 [Example 46, 2-(1H-benzotriazol-7-yl)-4-[1-(piperidin-4-yl)-1H-pyrazol-4-yl]furo[2,3-c]pyridine-7-amine]
  IC50: 1000 to 10000 nM

## CC(=O)N1CCC(n2cc(-c3cnc(N)c4oc(-c5ccc(N)cc5)cc34)cn2)CC1 [Example 183, 1-(4-{4-[7-amino-2-(4-aminophenyl)furo[2,3-c]pyridin-4-yl]-1H-pyrazol-1-yl}piperidin-1-yl)ethanone]
  IC50: 1000 to 10000 nM

## COc1cccc(COc2cccc(-c3cc4c(-c5cnn(C6CCN(C(C)=O)CC6)c5)cnc(N)c4o3)c2)c1 [Example 207, 1-{4-[4-(7-amino-2-{3-[(3-methoxybenzyl)oxy]phenyl}furo[2,3-c]pyridin-4-yl)-1H-pyrazol-1-yl]piperidin-1-yl}ethanone]
  IC50: > 10000 nM

## CC(=O)N1CCC(n2cc(-c3cnc(N)c4oc(-c5ccc(COc6cccc7ccccc67)cc5)cc34)cn2)CC1 [Example 156, 1-{4-[4-(7-amino-2-{4-[(naphthalen-1-yloxy)methyl]phenyl}furo[2,3-c]pyridin-4-yl)-1H-pyrazol-1-yl]piperidin-1-yl}ethanone]
  IC50: > 10000 nM

## CC(C)Oc1cccc(/C=C/C(=O)N2CCC(n3cc(-c4cnc(N)c5oc(-c6cccc7cnsc67)cc45)cn3)CC2)c1 [Example 337, (E)-1-{4-[4-(7-amino-2-benzo[d]isothiazol-7-yl-furo[2,3-c]pyridin-4-yl)-pyrazol-1-yl]-piperidin-1-yl}-3-(3-isopropoxy-phenyl)-propenone]
  IC50: 1000 to 10000 nM

## Nc1ncc(-c2cscn2)c2cc(-c3csc4cnccc34)oc12 [Example 396, 4-thiazol-4-yl-2-thieno[2,3-c]pyridin-3-yl-furo[2,3-c]pyridin-7-ylamine]
  IC50: 1000 to 10000 nM

## CC(=O)N1CCC(n2cc(-c3cnc(N)c4oc(-c5ccnc6ccccc56)cc34)cn2)CC1 [Example 175, 1-(4-{4-[7-amino-2-(quinolin-4-yl)furo[2,3-c]pyridin-4-yl]-1H-pyrazol-1-yl}piperidin-1-yl)ethanone]
  IC50: 100 to 1000 nM

## CC(=O)N1CCC(n2cc(-c3cnc(N)c4oc(-c5ccc(Cl)c(C(=O)O)c5)cc34)cn2)CC1 [Example 110, 5-{4-[1-(1-acetylpiperidin-4-yl)-1H-pyrazol-4-yl]-7-aminofuro[2,3-c]pyridin-2-yl}-2-chlorobenzoic acid hydrochloride]
  IC50: 1000 to 10000 nM

## COc1cc2c(-c3cc4c(-c5cnn([C@H]6CC[C@H](O)CC6)c5)cnc(N)c4o3)csc2cn1 [Example 250, trans-4-{4-[7-amino-2-(5-methoxythieno[2,3-c]pyridin-3-yl)furo[2,3-c]pyridin-4-yl]-1H-pyrazol-1-yl}cyclohexanol bis(trifluoroacetate)]
  IC50: 1000 to 10000 nM

## Nc1ncc(-c2cnn(C3CCNCC3)c2)c2cc(-c3ccsc3)oc12 [Example 28, 4-[1-(piperidin-4-yl)-1H-pyrazol-4-yl]-2-(thiophen-3-yl)furo[2,3-c]pyridine-7-amine]
  IC50: 1000 to 10000 nM

## Nc1ncc(-c2cnn(C3CCNCC3)c2)c2cc(-c3cccc4c3Sc3ccccc3S4)oc12 [Example 35, 4-[1-(piperidin-4-yl)-1H-pyrazol-4-yl]-2-(thianthren-1-yl)furo[2,3-c]pyridine-7-amine]
  IC50: 1000 to 10000 nM

## CC(=O)N1CCC(n2cc(-c3cnc(N)c4oc(-c5ccc(N)c(C#N)c5)cc34)cn2)CC1 [Example 104, 5-{4-[1-(1-acetylpiperidin-4-yl) 1H-pyrazol-4-yl]-7-aminofuro[2,3-c]pyridin-2-yl}-2-aminobenzonitrile]
  IC50: 1000 to 10000 nM

## Nc1ncc(-c2cnn(CC(=O)O)c2)c2cc(-c3csc4cnccc34)oc12 [Example 296, [4-(7-amino-2-thieno[2,3-c]pyridin-3-yl-furo[2,3-c]pyridin-4-yl)-pyrazol-1-yl]-acetic acid]
  IC50: 100 to 1000 nM

## CC(=O)N1CCC(n2cc(-c3cnc(N)c4oc(-c5cccc(OCC(C)C)c5)cc34)cn2)CC1 [Example 204, 1-[4-(4-{7-amino-2-[3-(2-methylpropoxy)phenyl]furo[2,3-c]pyridin-4-yl}-1H-pyrazol-1-yl)piperidin-1-yl]ethanone]
  IC50: > 10000 nM

## COC(=O)c1csc(-c2cnc(N)c3oc(-c4csc5cnccc45)cc23)c1 [Example 380, 5-(7-amino-2-thieno[2,3-c]pyridin-3-yl-furo[2,3-c]pyridin-4-yl)-thiophene-3-carboxylic acid methyl ester]
  IC50: 1000 to 10000 nM

## CC(=O)c1ccccc1-c1cc2c(-c3cnn(C4CCN(C(C)=O)CC4)c3)cnc(N)c2o1 [Example 193, 1-(4-{4-[2-(2-acetylphenyl)-7-aminofuro[2,3-c]pyridin-4-yl]-1H-pyrazol-1-yl}piperidin-1-yl)ethanone]
  IC50: 1000 to 10000 nM

## CC(=O)N1CCC(n2cc(-c3cnc(N)c4oc(C5CCCC5)cc34)cn2)CC1 [Example 198, 1-{4-[4-(7-amino-2-cyclopentylfuro[2,3-c]pyridin-4-yl)-1H-pyrazol-1-yl]piperidin-1-yl}ethanone]
  IC50: 1000 to 10000 nM

## Nc1ncc(-c2ccc(-c3ccccc3)s2)c2cc(-c3csc4cnccc34)oc12 [Example 385, 4-(5-phenyl-thiophen-2-yl)-2-thieno[2,3-c]pyridin-3-yl-furo[2,3-c]pyridin-7-ylamine]
  IC50: > 10000 nM

## Nc1cc(-c2cc3c(-c4cnn(C5CCNCC5)c4)cnc(N)c3o2)cnc1Cl [Example 43, 2-(5-amino-6-chloropyridin-3-yl)-4-[1-(piperidin-4-yl)-1H-pyrazol-4-yl]furo[2,3-c]pyridine-7-amine]
  IC50: 100 to 1000 nM

## CCOC(=O)[C@H]1CC[C@H](n2cc(-c3cnc(N)c4oc(-c5csc6cnccc56)cc34)c(C)n2)CC1 [Example 298, 4-[4-(7-amino-2-thieno[2,3-c]pyridin-3-yl-furo[2,3-c]pyridin-4-yl)-3-methyl-pyrazol-1-yl]-cyclohexane carboxylic acid ethyl ester]
  IC50: > 10000 nM

## N#Cc1sccc1-c1cnc(N)c2oc(-c3csc4cnccc34)cc12 [Example 384]
  IC50: > 10000 nM

## CCOC(=O)Cn1cc(-c2cnc(N)c3oc(-c4cccc5cnccc45)cc23)cn1 [Example 59, ethyl {4-[7-amino-2-(isoquinolin-5-yl)furo[2,3-c]pyridin-4-yl]-1H-pyrazol-1-yl}acetate]
  IC50: 1000 to 10000 nM

## Nc1ccc(-c2nc(-c3cc4c(-c5cnn(C6CCNCC6)c5)cnc(N)c4o3)ccc2N)nc1Cl [Example 30, 6-{7-amino-4-[1-(piperidin-4-yl)-1H-pyrazol-4-yl]furo[2,3-c]pyridine-2-yl}-6′-chloro-2,2′-bipyridine-3,5′-diamine]
  IC50: 100 to 1000 nM
